{
  "source": "patent US20090263467A1",
  "about": "“COMBINATION DRUG THERAPY USING ORALLY DISSOLVING FILM OR ORALLY DISINTEGRATING TABLET DOSAGE FORMS TO TREAT DRY MOUTH AILMENTS” (priority 2008, published 2009)",
  "origin": "cited, not measured here",
  "key": {"[1]": {"conditions": "neutral pH"}},
  "data": [
    {"compound": "CC[C@@H]1C(=O)OC[C@@H]1Cc1cncn1C", "note": "[Pilocarpine]", "values": [
      {"measurement": "half-life", "result": 45.6, "unit": "min"},
      {"measurement": "permeability", "setting": "[1]", "result": "higher"}
    ]}
  ]
}
